The values that follow come from EP2776398B1, “SUBSTITUTED PYRAZOLYL-BASED UREA DERIVATIVES AS VANILLOID RECEPTOR LIGANDS” (Medifron DBT Inc., priority 2011, dated 2013).

T1 sequence (Q8NER1 whole entry): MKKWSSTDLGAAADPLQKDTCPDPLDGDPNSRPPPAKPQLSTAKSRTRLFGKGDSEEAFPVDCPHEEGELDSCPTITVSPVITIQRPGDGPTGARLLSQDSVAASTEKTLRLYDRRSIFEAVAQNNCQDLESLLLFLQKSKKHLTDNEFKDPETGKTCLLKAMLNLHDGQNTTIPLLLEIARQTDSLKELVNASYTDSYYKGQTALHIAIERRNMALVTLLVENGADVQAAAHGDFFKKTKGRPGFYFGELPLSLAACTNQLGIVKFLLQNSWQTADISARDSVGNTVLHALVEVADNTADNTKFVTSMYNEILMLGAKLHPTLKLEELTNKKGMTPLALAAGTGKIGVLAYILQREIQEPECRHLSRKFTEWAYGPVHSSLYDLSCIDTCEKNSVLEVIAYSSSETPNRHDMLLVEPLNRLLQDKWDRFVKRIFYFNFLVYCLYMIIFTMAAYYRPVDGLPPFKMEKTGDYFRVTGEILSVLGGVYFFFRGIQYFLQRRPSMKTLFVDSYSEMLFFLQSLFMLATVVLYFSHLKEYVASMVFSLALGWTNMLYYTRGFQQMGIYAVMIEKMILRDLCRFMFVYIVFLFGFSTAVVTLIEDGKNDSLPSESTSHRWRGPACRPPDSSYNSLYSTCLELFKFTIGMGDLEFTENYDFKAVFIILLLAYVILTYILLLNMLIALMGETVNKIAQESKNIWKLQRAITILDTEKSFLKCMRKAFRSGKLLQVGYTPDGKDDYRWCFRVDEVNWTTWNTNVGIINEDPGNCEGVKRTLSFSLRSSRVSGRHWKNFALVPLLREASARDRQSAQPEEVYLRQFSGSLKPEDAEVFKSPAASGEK

The first assay has as its target T1, vanilloid receptor 1 (VR1/TRPV1 receptor) (Homo sapiens, UniProt Q8NER1).
T1 construct: expressed in transfected cells; host or cells: CHO K1 cells (ECACC), stably transfected
The experiment in a line: Functional testing on vanilloid receptor 1: FLIPR Ca2+ influx assay against capsaicin (Cap) in transfected CHO K1 cells (pharmacological method II). For Ki: 100 nM capsaicin. The format is cell-based. On the set-up: key to (f) Ki (human being) [nM] Cap: agonist classification: AG = agonist. To be noted: @ 5µM; human VR1 in CHO K1 cells; capsaicin; relative to maximum inhibition with 10 µM capsazepine; read-out: inhibition (as a percentage), printed in column (f) Ki (human being) [nM] Cap.
Description: […]
For `CC(C)(C)c1cc(CNC(=O)Nc2ccc(C(C)(CO)CO)cc2)n(-c2cccc(Cl)c2)n1` [A157, 1-[[5-tert-Butyl-2-(3-chlorophenyl)-2H-pyrazol-3-yl]-methyl]-3-[4-[2-hydroxy-1-(hydroxymethyl)-1-methyl-ethyl]-phenyl]-urea], the inhibition at 5 µM came to 35%.

The same assay, now with this note: human VR1 in CHO K1 cells; AG printed instead of a Ki.
`COCCOc1ccc(NC(=O)NCc2cc(C(C)(C)C)nn2-c2cccc(Cl)c2)cc1F` [A17, 1-[[5-tert-Butyl-2-(3-chlorophenyl)-2H-pyrazol-3-yl]-methyl]-3-[3-fluoro-4-(2-methoxy-ethoxy)-phenyl]-urea]: the “(f) Ki (human being) [nM] Cap: agonist classification” value (“(f) Ki (human being) [nM] Cap” for short) is recorded as “AG”.

Take `CC(O)c1ccc(C(C)C(=O)NCc2cc(C(C)(C)C)nn2-c2cccc(Cl)c2)cc1F` (stereo not shown) [A98, N-[[5-tert-Butyl-2-(3-chlorophenyl)-2H-pyrazol-3-yl]-methyl]-2-[3-fluoro-4-(1-hydroxy-ethyl)-phenyl]-propionamide]: the “(f) Ki (human being) [nM] Cap” value is reported as “AG”.

As for `CC(C(=O)NCc1cc(C(C)(C)C)nn1-c1cccc(Cl)c1)c1ccc(C(O)CO)cc1` (stereo not shown) [A147, N-[[5-tert-Butyl-2-(3-chlorophenyl)-2H-pyrazol-3-yl]-methyl]-2-[4-(1,2-dihydroxy-ethyl)-phenyl]-propionamide], the “(f) Ki (human being) [nM] Cap” value is “AG”.

As to `CC(C(=O)NCc1cc(C(C)(C)C)nn1-c1cccc(F)c1)c1ccc(CO)c(F)c1` (stereo not shown) [A37, N-[[5-tert-Butyl-2-(3-fluorophenyl)-2H-pyrazol-3-yl]-methyl]-2-[3-fluoro-4-(hydroxymethyl)-phenyl]-propionamide], the “(f) Ki (human being) [nM] Cap” value is recorded as “AG”.

Still in this assay, the particulars now being: read-out: (f) Ki (human being) [nM] Cap.
As for `O=C(NCc1cc(C(F)(F)F)nn1-c1cccc(F)c1)Nc1ccc(OCCO)c(F)c1` [A21, 1-[3-Fluoro-4-(2-hydroxy-ethoxy)-phenyl]-3-[[2-(3-fluorophenyl)-5-(trifluoromethyl)-2H-pyrazol-3-yl]-methyl]-urea], the inhibitory constant (Ki) was 7 nM.

For `CC(C)(C)c1cc(CNC(=O)Nc2ccc(OCCO)c(F)c2)n(-c2cccc(Cl)c2)n1` [A19, 1-[[5-tert-Butyl-2-(3-chlorophenyl)-2H-pyrazol-3-yl]-methyl]-3-[3-fluoro-4-(2-hydroxy-ethoxy)-phenyl]-urea], the Ki was found to be 13 nM.

Consider `COCCOCc1ccc(C(C)C(=O)NCc2cc(C(F)(F)F)nn2-c2cccc(Cl)c2)cc1F` (stereo not shown) [A111, N-[[2-(3-Chlorophenyl)-5-(trifluoromethyl)-2H-pyrazol-3-yl]-methyl]-2-[3-fluoro-4-(2-methoxy-ethoxy-methyl)-phenyl]-propionamide], for which the inhibition constant (Ki) was 38 nM.

In the case of `O=C(NCc1cc(C(F)(F)F)nn1-c1cccc(Cl)c1)Nc1ccc(CO)c(Cl)c1` [A97, 1-[3-Chloro-4-(hydroxymethyl)-phenyl]-3-[[2-(3-chlorophenyl)-5-(trifluoromethyl)-2H-pyrazol-3-yl]-methyl]-urea], the Ki is 11 nM.

As to `O=C(NCc1cc(C(F)(F)F)nn1-c1cccc(F)c1)Nc1ccc(CO)c(F)c1` [A62, 1-[3-Fluoro-4-(hydroxymethyl)-phenyl]-3-[[2-(3-fluorophenyl)-5-(trifluoromethyl)-2H-pyrazol-3-yl]-methyl]-urea], the Ki was 30 nM.

On to `C[C@@H](C(=O)NCc1cc(C(F)(F)F)nn1-c1cccc(Cl)c1)c1ccc(COCCO)c(F)c1` [A120, (2R)-N-[[2-(3-Chlorophenyl)-5-(trifluoromethyl)-2H-pyrazol-3-yl]-methyl]-2-[3-fluoro-4-(2-hydroxy-ethoxy-methyl)-phenyl]-propionamide], for which the inhibitory constant (Ki) came to 5 nM.

Consider `CC(C(=O)NCc1cc(C(F)(F)F)nn1-c1ccc(F)c(Cl)c1)c1ccc(CO)c(F)c1` (stereo not shown) [A42, N-[[2-(3-Chloro-4-fluoro-phenyl)-5-(trifluoromethyl)-2H-pyrazol-3-yl]-methyl]-2-[3-fluoro-4-(hydroxymethyl)-phenyl]-propionamide], for which the Ki came to 3 nM.

Take `O=C(NCc1cc(C(F)(F)F)nn1-c1ccccc1)Nc1ccc(CO)c(F)c1` [A58, 1-[3-Fluoro-4-(hydroxymethyl)-phenyl]-3-[[2-phenyl-5-(trifluoromethyl)-2H-pyrazol-3-yl]-methyl]-urea]: the Ki is 6 nM.

As to `CC(C(=O)NCc1cc(C(F)(F)F)nn1-c1ccc(F)c(F)c1)c1ccc(C2(O)CC2)c(F)c1` (stereo not shown) [A104, N-[[2-(3,4-Difluoro-phenyl)-5-(trifluoromethyl)-2H-pyrazol-3-yl]-methyl]-2-[3-fluoro-4-(1-hydroxy-cyclopropyl)-phenyl]-propionamide], the inhibition constant Ki was determined as 12 nM.

Regarding `O=C(NCc1cc(C(F)(F)F)nn1-c1cccc(Cl)c1)Nc1ccc(CO)c(F)c1` [A59, 1-[[2-(3-Chlorophenyl)-5-(trifluoromethyl)-2H-pyrazol-3-yl]-methyl]-3-[3-fluoro-4-(hydroxymethyl)-phenyl]-urea], the inhibitory constant (Ki) was determined as 7 nM.

For `COc1c(Cl)cccc1-n1nc(C(F)(F)F)cc1CNC(=O)Nc1ccc(CO)c(F)c1` [A90, 1-[[2-(3-Chloro-2-methoxy-phenyl)-5-(trifluoromethyl)-2H-pyrazol-3-yl]-methyl]-3-[3-fluoro-4-(hydroxymethyl)-phenyl]-urea], the inhibition constant (Ki) was determined as 27 nM.

Regarding `Cc1cc(-n2nc(C(F)(F)F)cc2CNC(=O)Nc2ccc(CO)c(F)c2)ccc1F` [A80, 1-[3-Fluoro-4-(hydroxymethyl)-phenyl]-3-[[2-(4-fluoro-3-methyl-phenyl)-5-(trifluoromethyl)-2H-pyrazol-3-yl]-methyl]-urea], the inhibition constant Ki was found to be 7 nM.

Regarding `COCCOc1ccc(NC(=O)NCc2cc(C(F)(F)F)nn2-c2cccc(Cl)c2)cc1F` [A18, 1-[[2-(3-Chlorophenyl)-5-(trifluoromethyl)-2H-pyrazol-3-yl]-methyl]-3-[3-fluoro-4-(2-methoxy-ethoxy)-phenyl]-urea], the inhibition constant (Ki) amounted to 68 nM.

As for `O=C(NCc1cc(C(F)(F)F)nn1-c1cccc(Cl)c1)Nc1ccc(C2(O)CC2)c(F)c1` [A106, 1-[[2-(3-Chlorophenyl)-5-(trifluoromethyl)-2H-pyrazol-3-yl]-methyl]-3-[3-fluoro-4-(1-hydroxy-cyclopropyl)-phenyl]-urea], the Ki was 31 nM.

On to `COc1cccc(-n2nc(C(F)(F)F)cc2CNC(=O)Nc2ccc(CO)c(F)c2)c1` [A67, 1-[3-Fluoro-4-(hydroxymethyl)-phenyl]-3-[[2-(3-methoxyphenyl)-5-(trifluoromethyl)-2H-pyrazol-3-yl]-methyl]-urea], for which the inhibition constant Ki is 43 nM.

As to `CC(C)c1cccc(-n2nc(C(F)(F)F)cc2CNC(=O)Nc2ccc(CO)c(F)c2)c1` [A82, 1-[3-Fluoro-4-(hydroxymethyl)-phenyl]-3-[[2-(3-isopropyl-phenyl)-5-(trifluoromethyl)-2H-pyrazol-3-yl]-methyl]-urea], the inhibition constant Ki is 2 nM.

In the case of `C[C@@H](C(=O)NCc1cc(C(F)(F)F)nn1-c1cccc(Cl)c1)c1ccc(CO)c(F)c1` [A35, (2R)-N-[[2-(3-Chlorophenyl)-5-(trifluoromethyl)-2H-pyrazol-3-yl]-methyl]-2-[3-fluoro-4-(hydroxymethyl)-phenyl]-propionamide], the inhibitory constant (Ki) was found to be 1 nM.

In the case of `COc1cccc(-n2nc(C(F)(F)F)cc2CNC(=O)C(C)c2ccc(C3(O)CC3)c(F)c2)c1` (stereo not shown) [A103, 2-[3-Fluoro-4-(1-hydroxy-cyclopropyl)-phenyl]-N-[[2-(3-methoxyphenyl)-5-(trifluoromethyl)-2H-pyrazol-3-yl]-methyl]-propionamide], the Ki was 22 nM.

Turning to `O=C(NCc1cc(C(F)(F)F)nn1-c1cccc(Cl)c1)Nc1ccc(C(O)CO)c(F)c1` (stereo not shown) [A151, 1-[[2-(3-Chlorophenyl)-5-(trifluoromethyl)-2H-pyrazol-3-yl]-methyl]-3-[4-(1,2-dihydroxy-ethyl)-3-fluoro-phenyl]-urea], the Ki stood at 62 nM.

As to `COc1cc(C)cc(-n2nc(C(F)(F)F)cc2CNC(=O)Nc2ccc(CO)c(F)c2)c1` [A92, 1-[3-Fluoro-4-(hydroxymethyl)-phenyl]-3-[[2-(3-methoxy-5-methyl-phenyl)-5-(trifluoromethyl)-2H-pyrazol-3-yl]-methyl]-urea], the Ki amounted to 19 nM.

Turning to `CC(C(=O)NCc1cc(C(F)(F)F)nn1-c1cccc(F)c1)c1ccc(CO)c(F)c1` (stereo not shown) [A38, 2-[3-Fluoro-4-(hydroxymethyl)-phenyl]-N-[[2-(3-fluorophenyl)-5-(trifluoromethyl)-2H-pyrazol-3-yl]-methyl]-propionamide], the Ki turned out to be 11 nM.

Regarding `Cc1cccc(-n2nc(C(F)(F)F)cc2CNC(=O)Nc2ccc(CO)c(F)c2)c1C` [A72, 1-[[2-(2,3-Dimethyl-phenyl)-5-(trifluoromethyl)-2H-pyrazol-3-yl]-methyl]-3-[3-fluoro-4-(hydroxymethyl)-phenyl]-urea], the Ki amounted to 14 nM.

`O=C(NCc1cc(C(F)(F)F)nn1-c1ccccc1F)Nc1ccc(CO)c(F)c1` [A61, 1-[3-Fluoro-4-(hydroxymethyl)-phenyl]-3-[[2-(2-fluorophenyl)-5-(trifluoromethyl)-2H-pyrazol-3-yl]-methyl]-urea]: the Ki came out at 26 nM.

Regarding `O=C(NCc1cc(C(F)(F)F)nn1-c1ccc(F)c(Cl)c1)Nc1ccc(CO)c(F)c1` [A65, 1-[[2-(3-Chloro-4-fluoro-phenyl)-5-(trifluoromethyl)-2H-pyrazol-3-yl]-methyl]-3-[3-fluoro-4-(hydroxymethyl)-phenyl]-urea], the Ki was 6 nM.

As for `CC(C)c1cccc(-n2nc(C(F)(F)F)cc2CNC(=O)C(C)c2ccc(CO)c(F)c2)c1` (stereo not shown) [A44, 2-[3-Fluoro-4-(hydroxymethyl)-phenyl]-N-[[2-(3-isopropyl-phenyl)-5-(trifluoromethyl)-2H-pyrazol-3-yl]-methyl]-propionamide], the Ki came out at 0.2 nM.

As for `O=C(NCc1cc(C(F)(F)F)nn1-c1cccc(Cl)c1)Nc1ccc(OCC(O)CO)cc1` (stereo not shown) [A23, 1-[[2-(3-Chlorophenyl)-5-(trifluoromethyl)-2H-pyrazol-3-yl]-methyl]-3-[4-(2,3-dihydroxy-propoxy)-phenyl]-urea], the inhibition constant (Ki) came to 35 nM.

The inhibition is the share of the control response that was lost under treatment. A word on the Ki: it is a measure of affinity in units of concentration, obtained from inhibition or displacement.
